Reference: patent US20230365592A1 (Agios Pharmaceuticals, Inc., priority 2022, published 2023)

molecular target: T1, human PAH with the R408W mutation (Homo sapiens, UniProt P00439, R408W); assay: Cell Based Phenylalanine Flux Assay; details: A375 cells expressing human PAH R408W; 24 hrs compound incubation; 13C-Tyrosine by LC-MS; average where tested multiple times; read-out: AC50;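 note: after compound treatment, cells received sepiapterin plus isotope-labelled Phenylalanine for 4 hours, then labelled Tyrosine in the medium was quantified, 10-point 2-fold dilution series run in duplicate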
T1 construct: expressed in transfected cells
T1 sequence (P00439 1-452 R408W): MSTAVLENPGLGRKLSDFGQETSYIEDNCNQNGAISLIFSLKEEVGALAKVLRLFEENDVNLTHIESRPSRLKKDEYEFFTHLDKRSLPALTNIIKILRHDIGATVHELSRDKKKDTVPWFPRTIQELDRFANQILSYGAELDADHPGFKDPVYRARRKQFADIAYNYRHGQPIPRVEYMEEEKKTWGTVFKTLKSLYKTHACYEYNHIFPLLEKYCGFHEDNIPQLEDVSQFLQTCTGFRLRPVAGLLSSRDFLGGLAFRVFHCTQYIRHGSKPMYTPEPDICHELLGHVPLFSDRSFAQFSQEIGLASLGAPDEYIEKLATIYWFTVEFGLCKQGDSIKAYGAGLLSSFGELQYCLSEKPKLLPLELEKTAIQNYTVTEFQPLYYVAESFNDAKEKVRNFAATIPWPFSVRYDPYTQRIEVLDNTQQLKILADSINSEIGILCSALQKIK
Procedure: Compounds were resuspended in DMSO, and 2-fold serial dilutions were performed to generate a 10-point dose curve. Compounds were added to plated cells in a total volume of 100 µl, and a final DMSO concentration of 0.5%. Each compound was tested in duplicate. Following compound addition, cells were placed in a 5% CO2, 37° C. tissue culture incubator for 24 hrs. After the incubation period, 20 µM sepiapterin and 800 µM 13C9,15N-Phenylalanine were added. After 4 hours, cell media was removed. An aliquot of 10 µl of cell media was combined with 200 µl of extraction buffer (80% acetonitrile/20% H2O) for each well. Determination of ^13C-Tyrosine concentration was assessed by liquid chromatography mass spectrometry.
Where a compound was tested multiple times, the average value of the tests is reported.

| AC50 | SMILES |
| --- | --- |
| 1 to 5 µM | O=C(c1nnc(-c2cnccn2)o1)N1CCc2[nH]cnc2[C@H]1c1cc2c(OC(F)F)cccn2n1 [Example 2448, (S)-(4-(4-(difluoromethoxy)pyrazolo[1,5-a]pyridin-2-yl)-6,7-dihydro-1H-imidazo[4,5-c]pyridin-5(4H)-yl)(5-(pyrazin-2-yl)-1,3,4-oxadiazol-2-yl)methanone] |
| > 5 µM | O=C(c1nnc(-c2cnccn2)o1)N1CCc2[nH]cnc2[C@@H]1c1cc2c(OC(F)F)cccn2n1 [Example 2449, (R)-(4-(4-(difluoromethoxy)pyrazolo[1,5-a]pyridin-2-yl)-6,7-dihydro-1H-imidazo[4,5-c]pyridin-5(4H)-yl)(5-(pyrazin-2-yl)-1,3,4-oxadiazol-2-yl)methanone] |
| 1 to 5 µM | COc1ccc2c(C(=O)N3CCc4[nH]cnc4[C@H]3c3cc4c(C)cccn4n3)cnn2c1 [Example 2450, (S)-(6-methoxypyrazolo[1,5-a]pyridin-3-yl)(4-(4-methylpyrazolo[1,5-a]pyridin-2-yl)-6,7-dihydro-1H-imidazo[4,5-c]pyridin-5(4H)-yl)methanone] |
| > 5 µM | COc1ccc2c(C(=O)N3CCc4[nH]cnc4[C@@H]3c3cc4c(C)cccn4n3)cnn2c1 [Example 2451, (R)-(6-methoxypyrazolo[1,5-a]pyridin-3-yl)(4-(4-methylpyrazolo[1,5-a]pyridin-2-yl)-6,7-dihydro-1H-imidazo[4,5-c]pyridin-5(4H)-yl)methanone] |
| 1 to 5 µM | O=C(c1cnn2cc(-c3ccccn3)ccc12)N1CCc2[nH]cnc2[C@H]1c1cc2cccc(C(F)(F)F)n2n1 [Example 2452, (S)-(6-(pyridin-2-yl)pyrazolo[1,5-a]pyridin-3-yl)(4-(7-(trifluoromethyl)pyrazolo[1,5-a]pyridin-2-yl)-6,7-dihydro-1H-imidazo[4,5-c]pyridin-5(4H)-yl)methanone] |
| 1 to 5 µM | Clc1cccc2cc([C@@H]3c4nc[nH]c4CCN3c3ncccn3)nn12 [Example 2454, (S)-4-(7-chloropyrazolo[1,5-a]pyridin-2-yl)-5-(pyrimidin-2-yl)-4,5,6,7-tetrahydro-1H-imidazo[4,5-c]pyridine] |
| 1 to 5 µM | Clc1cccc2cc([C@H]3c4nc[nH]c4CCN3c3ncccn3)nn12 [Example 2455, (R)-4-(7-chloropyrazolo[1,5-a]pyridin-2-yl)-5-(pyrimidin-2-yl)-4,5,6,7-tetrahydro-1H-imidazo[4,5-c]pyridine] |
| 1 to 5 µM | Cc1nnc(N2CCc3[nH]cnc3[C@H]2c2cc3c(Cl)cccn3n2)o1 [Example 2456, (S)-2-(4-(4-chloropyrazolo[1,5-a]pyridin-2-yl)-6,7-dihydro-1H-imidazo[4,5-c]pyridin-5(4H)-yl)-5-methyl-1,3,4-oxadiazole] |
| 1 to 5 µM | O=C(c1nnc(-c2cnn(C(F)(F)F)c2)o1)N1CCc2[nH]cnc2[C@H]1c1cc2c(OC(F)F)cccn2n1 [Example 2458, (S)-(4-(4-(difluoromethoxy)pyrazolo[1,5-a]pyridin-2-yl)-6,7-dihydro-1H-imidazo[4,5-c]pyridin-5(4H)-yl)(5-(1-(trifluoromethyl)-1H-pyrazol-4-yl)-1,3,4-oxadiazol-2-yl)methanone] |
| 1 to 5 µM | FC(F)c1nnc(N2CCc3[nH]cnc3[C@H]2c2cc3ccccn3n2)o1 [Example 2461, (S)-2-(difluoromethyl)-5-(4-(pyrazolo[1,5-a]pyridin-2-yl)-6,7-dihydro-1H-imidazo[4,5-c]pyridin-5(4H)-yl)-1,3,4-oxadiazole] |
| 1 to 5 µM | O=C(c1cnn2cc(C3CC3)ccc12)N1CCc2[nH]cnc2[C@H]1c1cc2cccc(C(F)F)n2n1 [Example 2462, (S)-(6-cyclopropylpyrazolo[1,5-a]pyridin-3-yl)(4-(7-(difluoromethyl)pyrazolo[1,5-a]pyridin-2-yl)-6,7-dihydro-1H-imidazo[4,5-c]pyridin-5(4H)-yl)methanone] |
| 1 to 5 µM | COc1ccc2c(C(=O)N3CCc4[nH]cnc4[C@H]3c3cc4cccc(Cl)n4n3)cnn2c1 [Example 2464, (S)-(4-(7-chloropyrazolo[1,5-a]pyridin-2-yl)-6,7-dihydro-1H-imidazo[4,5-c]pyridin-5(4H)-yl)(6-methoxypyrazolo[1,5-a]pyridin-3-yl)methanone] |
| > 5 µM | COc1ccc2c(C(=O)N3CCc4[nH]cnc4[C@@H]3c3cc4cccc(Cl)n4n3)cnn2c1 [Example 2465, (R)-(4-(7-chloropyrazolo[1,5-a]pyridin-2-yl)-6,7-dihydro-1H-imidazo[4,5-c]pyridin-5(4H)-yl)(6-methoxypyrazolo[1,5-a]pyridin-3-yl)methanone] |
| 1 to 5 µM | Cc1nnc(N2CCc3[nH]cnc3[C@H]2c2cc3c(C(F)F)cccn3n2)o1 [Example 2467, (S)-2-(4-(4-(difluoromethyl)pyrazolo[1,5-a]pyridin-2-yl)-6,7-dihydro-1H-imidazo[4,5-c]pyridin-5(4H)-yl)-5-methyl-1,3,4-oxadiazole] |
| 1 to 5 µM | O=C(c1nnc(-c2ncccn2)o1)N1CCc2[nH]cnc2[C@H]1c1cc2c(OC(F)(F)F)cccn2n1 [Example 2469, (S)-(5-(pyrimidin-2-yl)-1,3,4-oxadiazol-2-yl)(4-(4-(trifluoromethoxy)pyrazolo[1,5-a]pyridin-2-yl)-6,7-dihydro-1H-imidazo[4,5-c]pyridin-5(4H)-yl)methanone] |
| 1 to 5 µM | COc1cccn2nc([C@@H]3c4nc[nH]c4CCN3C(=O)c3cnn4cc(C)ccc34)cc12 [Example 2470, (S)-(4-(4-methoxypyrazolo[1,5-a]pyridin-2-yl)-6,7-dihydro-1H-imidazo[4,5-c]pyridin-5(4H)-yl)(6-methylpyrazolo[1,5-a]pyridin-3-yl)methanone] |
| > 5 µM | COc1cccn2nc([C@H]3c4nc[nH]c4CCN3C(=O)c3cnn4cc(C)ccc34)cc12 [Example 2471, (R)-(4-(4-methoxypyrazolo[1,5-a]pyridin-2-yl)-6,7-dihydro-1H-imidazo[4,5-c]pyridin-5(4H)-yl)(6-methylpyrazolo[1,5-a]pyridin-3-yl)methanone] |
| 1 to 5 µM | CN(C)c1ccc2c(C(=O)N3CCc4[nH]cnc4[C@H]3c3cc4cccc(C(F)(F)F)n4n3)cnn2c1 [Example 2472, (S)-(6-(dimethylamino)pyrazolo[1,5-a]pyridin-3-yl)(4-(7-(trifluoromethyl)pyrazolo[1,5-a]pyridin-2-yl)-6,7-dihydro-1H-imidazo[4,5-c]pyridin-5(4H)-yl)methanone] |
| 1 to 5 µM | CN(C)c1ccc2c(C(=O)N3CCc4[nH]cnc4[C@H]3c3cc4cccc(Cl)n4n3)cnn2c1 [Example 2474, (S)-(4-(7-chloropyrazolo[1,5-a]pyridin-2-yl)-6,7-dihydro-1H-imidazo[4,5-c]pyridin-5(4H)-yl)(6-(dimethylamino)pyrazolo[1,5-a]pyridin-3-yl)methanone] |
| 1 to 5 µM | CN(C)CCc1ccc2c(C(=O)N3CCc4[nH]cnc4[C@H]3c3cc4c(C(F)(F)F)cccn4n3)cnn2c1 [Example 2476, (S)-(6-(2-(dimethylamino)ethyl)pyrazolo[1,5-a]pyridin-3-yl)(4-(4-(trifluoromethyl)pyrazolo[1,5-a]pyridin-2-yl)-6,7-dihydro-1H-imidazo[4,5-c]pyridin-5(4H)-yl)methanone] |
| 1 to 5 µM | COCCc1ccc2c(C(=O)N3CCc4[nH]cnc4[C@H]3c3cc4c(C)cccn4n3)cnn2c1 [Example 2478, (S)-(6-(2-methoxyethyl)pyrazolo[1,5-a]pyridin-3-yl)(4-(4-methylpyrazolo[1,5-a]pyridin-2-yl)-6,7-dihydro-1H-imidazo[4,5-c]pyridin-5(4H)-yl)methanone] |
| > 5 µM | Cc1cccn2nc([C@H]3c4nc[nH]c4CCN3c3nnc(C4CCC4)o3)cc12 [Example 2480, (R)-2-cyclobutyl-5-(4-(4-methylpyrazolo[1,5-a]pyridin-2-yl)-6,7-dihydro-1H-imidazo[4,5-c]pyridin-5(4H)-yl)-1,3,4-oxadiazole] |
| 1 to 5 µM | Cc1cccn2nc([C@@H]3c4nc[nH]c4CCN3c3nnc(C4CCC4)o3)cc12 [Example 2481, (S)-2-cyclobutyl-5-(4-(4-methylpyrazolo[1,5-a]pyridin-2-yl)-6,7-dihydro-1H-imidazo[4,5-c]pyridin-5(4H)-yl)-1,3,4-oxadiazole] |
| 1 to 5 µM | FC(F)(F)c1cccn2nc([C@@H]3c4nc[nH]c4CCN3c3nnc(C4CCC4)o3)cc12 [Example 2482, (S)-2-cyclobutyl-5-(4-(4-(trifluoromethyl)pyrazolo[1,5-a]pyridin-2-yl)-6,7-dihydro-1H-imidazo[4,5-c]pyridin-5(4H)-yl)-1,3,4-oxadiazole] |
| 1 to 5 µM | FC(F)c1cccn2nc([C@@H]3c4nc[nH]c4CCN3c3nnc(C4CCC4)o3)cc12 [Example 2485, (S)-2-cyclobutyl-5-(4-(4-(difluoromethyl)pyrazolo[1,5-a]pyridin-2-yl)-6,7-dihydro-1H-imidazo[4,5-c]pyridin-5(4H)-yl)-1,3,4-oxadiazole] |
| 1 to 5 µM | FC(F)c1cccc2cc([C@@H]3c4nc[nH]c4CCN3c3nnc(C(F)(F)F)o3)nn12 [Example 2487, (S)-2-(4-(7-(difluoromethyl)pyrazolo[1,5-a]pyridin-2-yl)-6,7-dihydro-1H-imidazo[4,5-c]pyridin-5(4H)-yl)-5-(trifluoromethyl)-1,3,4-oxadiazole] |
| 1 to 5 µM | Cn1cc(-c2nnc(C(=O)N3CCc4[nH]cnc4[C@H]3c3cc4ccc(Br)cn4n3)o2)cn1 [Example 2488, (S)-(4-(6-bromopyrazolo[1,5-a]pyridin-2-yl)-1,4,6,7-tetrahydro-5H-imidazo[4,5-c]pyridin-5-yl)(5-(1-methyl-1H-pyrazol-4-yl)-1,3,4-oxadiazol-2-yl)methanone] |
